From patent publication US20130178391A1, “METHODS FOR PREDICTING TREATMENT RESPONSE BASED ON THE EXPRESSION PROFILES OF BIOMARKER GENES IN NOTCH MEDIATED CANCERS” (Rosetta Inpharmaceutics LLC, priority 2007, published 2013)

What was measured:
[1] = system: TALL1; test: Flow cytometry DNA content analysis (cell cycle arrest); assay type: cell-based, Human; details: GSI sensitive cell line TALL1, flow cytometry
Experimental: DNA content analysis was performed using Propidium Iodide/RNase buffer (BD Biosciences, Cat. No. 550825, San Jose, Calif.) or Draq5. Briefly, 1×10(6) cells were harvested and fixed with 70% ethanol for 20 minutes on ice, washed and then resupended in 500 uL of PI buffer for 15 min at room temperature followed by analysis on flow cytometer (FACSCalibur, BD Biosciences). Draq5 staining was performed by incubating 200,000 live cells with 10 uM Draq5 for 5 minutes followed by flow cytometric analysis (488 nm excitation).

[2] = system: HSB-2; test: 7-day Cell Titer Glo viability assay; assay type: cell-based, Human; details: HSB-2 cells, 7-day viability assay
Experimental: (§1) Human T-ALL cell lines were purchased from ATCC (Manassas, Va.) or DSMZ (Braunschweig, Germany). Cell lines were maintained in RPMI supplemented with 10-15% FBS and 2 mmol/L glutamine. For IC50 analyses TALL cell lines were plated in 96 well plates at 5000 cells/well, except for Tall-1 cells which were plated at 10,000 cells/well. Cells were re-fed with compound and media on day 4. Viability assays were performed using Cell Titer Glo kit (Promega, Cat. No. G7572, Fitchburg, Wis.) 7 days after compound addition. For larger scale compound treatments, TALL cell lines were plated in T-150 flasks at 200,000 cells/mL and treated at 0.1 or 1.0 μM GSI (MRK-003) for 3 days or as indicated. GSI washout studies were performed using 10 μM GSI. T-150 cultures were also re-fed on day 4.

[3] = system: RPMI 8402; test: 7-day Cell Titer Glo viability assay; assay type: cell-based, Human; details: RPMI 8402 cells, 7-day viability assay
Experimental: as §1

[4] = system: MOLT-16; test: 7-day Cell Titer Glo viability assay; assay type: cell-based, Human; details: MOLT-16 cells, 7-day viability assay
Experimental: as §1

[5] = system: MOLT -4; test: 7-day Cell Titer Glo viability assay; assay type: cell-based, Human; details: MOLT -4 cells, 7-day viability assay
Experimental: as §1

[6] = system: JURKAT; test: 7-day Cell Titer Glo viability assay; assay type: cell-based, Human; details: JURKAT cells, 7-day viability assay
Experimental: as §1

[7] = system: CEM; test: 7-day Cell Titer Glo viability assay; assay type: cell-based, Human; details: CEM cells, 7-day viability assay
Experimental: as §1

[8] = system: SUPT-11; test: 7-day Cell Titer Glo viability assay; assay type: cell-based, Human; details: SUPT-11 cells, 7-day viability assay
Experimental: as §1

[9] = system: DND41; test: 7-day Cell Titer Glo viability assay; assay type: cell-based, Human; details: DND41 cells, 7-day viability assay
Experimental: as §1

[10] = system: PF-382; test: 7-day Cell Titer Glo viability assay; assay type: cell-based, Human; details: PF-382 cells, 7-day viability assay
Experimental: as §1

[11] = system: HBP-ALL; test: 7-day Cell Titer Glo viability assay; assay type: cell-based, Human; details: HBP-ALL cells, 7-day viability assay
Experimental: as §1

[12] = system: TALL-1; test: 7-day Cell Titer Glo viability assay; assay type: cell-based, Human; details: TALL-1 cells, 7-day viability assay
Experimental: as §1

[13] = system: KOPTK-1; test: 7-day Cell Titer Glo viability assay; assay type: cell-based, Human; details: KOPTK-1 cells, 7-day viability assay
Experimental: as §1

[14] = system: LOUCY; test: 7-day Cell Titer Glo viability assay; assay type: cell-based, Human; details: LOUCY cells, 7-day viability assay
Experimental: as §1

[15] = system: BE-13; test: 7-day Cell Titer Glo viability assay; assay type: cell-based, Human; details: BE-13 cells, 7-day viability assay
Experimental: as §1

[16] = system: SKW-3; test: 7-day Cell Titer Glo viability assay; assay type: cell-based, Human; details: SKW-3 cells, 7-day viability assay
Experimental: as §1

[17] = system: KARPAS-45; test: 7-day Cell Titer Glo viability assay; assay type: cell-based, Human; details: KARPAS-45 cells, 7-day viability assay
Experimental: as §1

[18] = system: CDKN2D, CDKN1B; test: Quantitative PCR of CDKN2D and CDKN1B in T-ALL cell lines; assay type: cell-based, Human; details: TALL1 cells, 48 hours
Experimental: T-ALL cell lines were treated with DMSO or MRK-003 (active GSI) for 48 hours and then harvested. RNA was isolated using the RNeasy Mini Kit (Qiagen, Cat#: 74106). cDNA was synthesized using High Capacity Archive Kit (Applied Biosystems, Cat #: 4368814). qPCR was performed on an ABI 7900 using AACT protocol using their inventoried Taqman Probes/Primers for human CDKN2D, CDKN1B and GAPDH (as internal control). Analysis was performed in SDS 2.2.2 software (Applied Biosystems).

[19] = system: CDKN2D, CDKN1B; test: Immunoblot of CDKN2D and CDKN1B; assay type: cell-based, Human; details: TALL1 cells
Source text: Standard western blotting procedures were used. Antibodies used as follows; Rb-underphosphorylated, (BD Biosciences, Cat. No 554164, San Jose, Calif.) Rb-Total (Cat. No. 9309), CDKN1B (Cell Signaling Technologies, Cat. No. 2552, Danvers, Mass.), CDKN2D (Santa Cruz Biotechnologies, Cat No. sc-1063, Santa Cruz, Calif.), Beta-Actin (Abcam Inc., Cat. No. 8226, Cambridge, Mass.) Immunoblot of NOTCH intracellular domain (NICD) was previously determined (O'Neil, Grim et al. 2007)

[20] = system: human T-ALL cell lines; test: Grouping of 16 T-ALL cell lines by GSI sensitivity (7-day ATP viability assay); assay type: cell-based
Experimental: as §1
Previous studies have identified mutations in the heterodimerization domain or PEST domain of the NOTCH1 gene in T-ALL cell lines and patient samples resulting in increased NICD and presumably activation of the NOTCH signaling pathway (Weng, Ferrando et al. 2004; Zhu, Zhao et al. 2006). In a subset of human T-ALL cell lines with activating mutations in NOTCH1, treatment with GSIs leads to cell cycle arrest and apoptosis (Weng, Ferrando et al. 2004; Lewis, Leveridge et al. 2007). […] We determined IC50 values for 16 T-ALL cell lines using a 7-day viability assay which allowed grouping into four sensitivity groups (1) high, IC50<1 uM, (2) medium, IC50 3-4 uM, (3) low, IC50 6-7 uM, (4) none, IC50>10 uM and comparison to NOTCH1 mutuation and NICD protein Levels (Table1).
GSI IC50s, based on a 7-day ATP viability assay, are summarized for 16 T-ALL cell lines and grouped into high […], medium (3-4 uM), low (6-7 uM) or insensitive groupings (>10 uM). Also summarized is NOTCH1 mutation status, NICD levels and cell line group size for each sensitivity level previously described (O'Neil et al. 2007). NICD levels are reported qualitatively based on immunoblot signal, 0=none, 1=low, 2=medium, 3=high.

IC50 [4]: > 10 µM
IC50 [5]: > 10 µM
IC50 [6]: > 10 µM
IC50 [16]: > 10 µM
IC50 [17]: 0.81 µM
Compound: O=S1(=O)N[C@@]2(CN1CC(F)(F)F)[C@@H]1CC[C@H]2Cc2ccc(/C=C/CN3CCC(C(F)(F)F)CC3)cc2C1 [MRK-003]
cell cycle arrest (FIG. 3A) [1]: induced cell cycle arrest
IC50 [2]: 3.7 µM
IC50 [3]: 0.86 µM
IC50 [7]: 3.2 µM
IC50 [8]: 7.1 µM
IC50 [9]: 0.25 µM
IC50 [10]: 3.2 µM
IC50 [11]: 0.38 µM
IC50 [12]: 0.11 µM
IC50 [13]: 0.15 µM
IC50 [14]: > 10 µM
IC50 [15]: 6.8 µM
increases in CDKN2D and CDKN1B by quantitative PCR (FIG. 3B) [18]: increases in the CDKi CDKN2D and CDKN1B
increases in CDKN2D and CDKN1B by immunoblot (FIG. 3C) [19]: increases in the CDKi CDKN2D and CDKN1B
GSI Sensitivity ([20]; cell lines BE-13, SUPT-11): Low (low, IC50 6-7 uM)
GSI Sensitivity ([20]; cell lines CEM, PF-382, HSB-2): Medium (medium, IC50 3-4 uM)
GSI Sensitivity ([20]; cell lines JURKAT, LOUCY, MOLT -4, MOLT-16, SKW-3): None (none, IC50>10 uM)
GSI Sensitivity ([20]; cell lines TALL-1, KOPTK-1, DND41, HBP-ALL, KARPAS-45, RPMI 8402): High (high, IC50<1 uM)
